Patent publication US20230348444A1, “NOVEL COMPOUNDS FOR USE IN THE TREATMENT OF DISEASES ASSOCIATED WITH ANGIOTENSIN II” (Vicore Pharma AB, priority 2020, published 2023)

Key:
[1] = target: T1, human recombinant AT1 receptor (Homo sapiens, UniProt P30556); assay: Binding to AT1 receptor, radiometric scintillation assay (Eurofins protocol ITEM26 and ITEM24); conditions: read-out: AT1 IC50, ligand 125I (sar1,Ile8)-AT-II, 1 and 10 uM, 2-4 h at 37° C.
T1 sequence (P30556 1-359): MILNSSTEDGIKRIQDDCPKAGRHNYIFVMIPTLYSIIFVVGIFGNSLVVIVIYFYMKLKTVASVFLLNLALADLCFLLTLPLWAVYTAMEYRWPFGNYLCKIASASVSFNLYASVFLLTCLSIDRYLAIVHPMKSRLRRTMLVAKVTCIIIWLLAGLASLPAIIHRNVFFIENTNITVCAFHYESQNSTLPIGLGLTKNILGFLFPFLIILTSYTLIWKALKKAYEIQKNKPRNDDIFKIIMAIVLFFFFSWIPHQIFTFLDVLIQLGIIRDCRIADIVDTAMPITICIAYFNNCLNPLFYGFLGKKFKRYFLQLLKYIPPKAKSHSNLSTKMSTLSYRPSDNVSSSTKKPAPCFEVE
Description: (§1) Compounds were evaluated for binding to the human recombinant AT2 and AT1 receptor according to Eurofins protocol ITEM26 and ITEM24 using a radiometric scintillation assay.

[2] = target: T2, human recombinant AT2 receptor (Homo sapiens, UniProt P50052); assay: Binding to AT2 receptor, radiometric scintillation assay (Eurofins protocol ITEM26 and ITEM24); conditions: read-out: AT2 IC50, ligand 125I CGP 42112A, 1, 10, 100 and 1000 nM, 2-4 h at 37° C.
T2 sequence (P50052 1-363): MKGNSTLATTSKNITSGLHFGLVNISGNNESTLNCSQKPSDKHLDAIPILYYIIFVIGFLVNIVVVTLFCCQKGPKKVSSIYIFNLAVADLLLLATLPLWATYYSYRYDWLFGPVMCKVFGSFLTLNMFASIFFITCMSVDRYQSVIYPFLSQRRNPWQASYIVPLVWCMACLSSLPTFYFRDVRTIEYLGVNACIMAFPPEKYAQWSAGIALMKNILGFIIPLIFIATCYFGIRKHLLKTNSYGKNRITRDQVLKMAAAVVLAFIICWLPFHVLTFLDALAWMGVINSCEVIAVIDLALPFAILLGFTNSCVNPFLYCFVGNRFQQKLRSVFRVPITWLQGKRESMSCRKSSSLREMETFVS
Description: as §1

[3] = target: T2, human recombinant AT2 receptor; assay: biochemical
Description: as §1

[4] = target: T1, human recombinant AT1 receptor; assay: biochemical
Description: as §1

| IC50 [3] [nM] | IC50 [4] [nM] | Structure (SMILES) | IC50 [1] [nM] | IC50 [2] [nM] |
| --- | --- | --- | --- | --- |
|  |  | CCOC(=O)NS(=O)(=O)c1sc(CC(C)C)cc1-c1ccc(Cn2ccnc2C)c(F)c1.O=C(O)C(F)(F)F [Example 1, Ethyl (3-(3-fluoro-4-((2-methyl-1H-imidazol-1-yl)methyl)phenyl)-5-isobutylthiophen-2-yl)sulfonvicarbamate trifluoroacetic acid] | > 1000 | 2.4 |
|  |  | COCCOC(=O)NS(=O)(=O)c1sc(CC(C)C)cc1-c1ccc(Cn2ccnc2C)c(F)c1.O=C(O)C(F)(F)F [Example 3] | > 1000 | 3.5 |
|  |  | CCc1nccn1Cc1ccc(-c2cc(CC(C)C)sc2S(=O)(=O)NC(=O)OCc2ccc(F)cc2)cc1F.O=C(O)C(F)(F)F [Example 6, 4-Fluorobenzyl (3-(4((2-ethyl-1H-imidazol-1-yl)methyl)-3-fluorophenyl)-5-isobutylthio-phen-2-yl)sulfonylcarbamate trifluoroacetic acid] | > 1000 | 1.8 |
|  |  | CCOC(=O)NS(=O)(=O)c1sc(CC(C)C)cc1-c1ccc(Cn2ccnc2CC)c(F)c1.O=C(O)C(F)(F)F [Example 7, Ethyl (3-(4-((2-ethyl-1H-imidazol-1-yl)methyl)-3-fluorophenyl)-5-isobutylthiophen-2-30 yl)sulfonylcarbamate trifluoroacetic acid] | > 1000 | 1.8 |
|  |  | CCOC(=O)NS(=O)(=O)c1sc(CC(C)C)cc1-c1ccc(Cn2ccnc2C(C)C)c(F)c1.O=C(O)C(F)(F)F [Example 8, Ethyl (3-(3-fluoro-4-((2-isopropyl-1H-imidazol-1-yl)methyl)phenyl)-5-isobutylthio-phen-2-yl)sulfonylcarbamate trifluoroacetic acid] | > 1000 | 3.5 |
|  |  | Cc1nccn1Cc1c(F)cc(-c2cc(CC(C)C)sc2S(=O)(=O)NC(=O)OCCO)cc1F [Example 18, 2-Hydroxyethyl (3-(3,5-difluoro-4-((2-methyl-1H-imidazol-1-yl)methyl)phenv1)-5-isobutylthiophen-2-yl)sulfonylcarbamate] | 16000 | 0.87 |
| 4.1 | 9000 | Cc1nccn1Cc1ccc(-c2cc(CC(C)C)sc2S(=O)(=O)NC(=O)OCCOC(=O)C(C)(C)C)cc1F [Example 19, 2-((((3-(3-Fluoro-4-((2-methyl-1H-imidazol-1-yl)methyl)phenyl)-5-isobutylthiophen-2-yl)sulfonyl)carbamoyl)oxy)ethyl pivalate] |  |  |
| 1.82 | 2300 | CC(C)Cc1cc(-c2ccc(Cn3ccnc3C(C)(C)C)c(F)c2)c(S(=O)(=O)NC(=O)c2ccccn2)s1 [Example 27, N-((3-(4-((2-(Tert-Butyl)-1H-imidazol-1-yl)methyl)-3-fluorophenyl)-5-isobutylthio-phen-2-yl)sulfonyl)picolinamide] |  |  |
